Tests used:
Type in all cases: in vivo
[1] = system: barnyardgrass (Echinochloa crus-galli); test: Test A preemergence soil spray, visual injury rating 0-100; details: 10 days, 0 = no effect, 100 = complete control; for Barnyardgrass plant response rating (0-100): 31 g ai/ha; for Barnyardgrass plant response rating (0 to 100 scale): 125 g ai/ha
Excerpt: (§1) Seeds of plant species selected from barnyardgrass (Echinochloa crus-galli), blackgrass (Alopecurus myosuroides), corn (Zea mays), foxtail, giant (giant foxtail, Setaria faberi), green foxtail (Setaria viridis), goosegrass (Eleusine indica), kochia (Bassia scoparia), oat, wild (wild oat, Avena fatua), palmer (palmer amaranth, palmer pigweed, Amaranthus palmeri), ragweed (common ragweed, Ambrosia artemisiifolia), ryegrass, Italian (italian ryegrass, Lolium multiflorum), soybean (Glycine max) and wheat (Triticum aestivum) were planted into a blend of loam soil and sand and treated preemergence with a directed soil spray using test chemicals formulated in a non-phytotoxic solvent mixture which included a surfactant.
(§2) At the same time, plants selected from these crops and weed species and also galium (catchweed bedstraw, Galium aparine) and horseweed (Erigeron canadensis) were planted in pots containing the same blend of loam soil and sand and treated with postemergence applications of test chemicals formulated in the same manner. Plants ranged in height from 2 to 10 cm and were in the one- to two-leaf stage for the postemergence treatment. Treated plants and untreated controls were maintained in a greenhouse for 10 days, after which time all treated plants were compared to untreated controls and visually evaluated for injury. Plant response ratings, summarized in Table A, are based on a 0 to 100 scale where 0 is no effect and 100 is complete control. A dash (-) response means no test result.

[2] = system: blackgrass (Alopecurus myosuroides); test: as above; details: 10 days, 0 = no effect, 100 = complete control; for Blackgrass plant response rating (0-100): 31 g ai/ha; for Blackgrass plant response rating (0 to 100 scale): 125 g ai/ha
Excerpt: as §1, §2

corn (Zea mays) [3] = test: as above; details: 10 days, 0 = no effect, 100 = complete control; for Corn plant response rating (0-100): 31 g ai/ha; for Corn plant response rating (0 to 100 scale): 125 g ai/ha
Excerpt: as §1, §2

[4] = system: green foxtail (Setaria viridis); test: as above; details: 10 days, 0 = no effect, 100 = complete control; for Foxtail, Green plant response rating (0-100): 31 g ai/ha; for Foxtail, Green plant response rating (0 to 100 scale): 125 g ai/ha
Excerpt: as §1, §2

kochia (Bassia scoparia) [5] = test: as above; details: 10 days, 0 = no effect, 100 = complete control; for Kochia plant response rating (0-100): 31 g ai/ha; for Kochia plant response rating (0 to 100 scale): 125 g ai/ha
Excerpt: as §1, §2

[6] = system: oat, wild (wild oat, Avena fatua); test: as above; details: 10 days, 0 = no effect, 100 = complete control; for Oat, Wild plant response rating (0-100): 31 g ai/ha; for Oat, Wild plant response rating (0 to 100 scale): 125 g ai/ha
Excerpt: as §1, §2

[7] = system: palmer (palmer amaranth, palmer pigweed, Amaranthus palmeri); test: as above; details: 10 days, 0 = no effect, 100 = complete control; for Amaranth, Palmer plant response rating (0-100): 31 g ai/ha; for Amaranth, Palmer plant response rating (0 to 100 scale): 125 g ai/ha
Excerpt: as §1, §2

[8] = system: ragweed (common ragweed, Ambrosia artemisiifolia); test: as above; details: 10 days, 0 = no effect, 100 = complete control; for Ragweed plant response rating (0-100): 31 g ai/ha; for Ragweed plant response rating (0 to 100 scale): 125 g ai/ha
Excerpt: as §1, §2

[9] = system: ryegrass, Italian (italian ryegrass, Lolium multiflorum); test: as above; details: 10 days, 0 = no effect, 100 = complete control; for Ryegrass, Italian plant response rating (0-100): 31 g ai/ha; for Ryegrass, Italian plant response rating (0 to 100 scale): 125 g ai/ha
Excerpt: as §1, §2

soybean (Glycine max) [10] = test: as above; details: 10 days, 0 = no effect, 100 = complete control; for Soybean plant response rating (0-100): 31 g ai/ha; for Soybean plant response rating (0 to 100 scale): 125 g ai/ha
Excerpt: as §1, §2

[11] = system: wheat (Triticum aestivum); test: as above; details: 10 days, 0 = no effect, 100 = complete control; for Wheat plant response rating (0-100): 31 g ai/ha; for Wheat plant response rating (0 to 100 scale): 125 g ai/ha
Excerpt: as §1, §2

[12] = system: barnyardgrass (Echinochloa crus-galli); test: Test A postemergence application, visual injury rating 0-100; details: 10 days; for Barnyardgrass plant response rating (0-100): 31 g ai/ha, postemergence, 0 = no effect, 100 = complete control; for Barnyardgrass plant response rating (0 to 100 scale): Postemergence, 125 g ai/ha, 0 is no effect, 100 is complete control
Excerpt: as §1, §2

[13] = system: blackgrass (Alopecurus myosuroides); test: as above; details: 10 days; for Blackgrass plant response rating (0-100): 31 g ai/ha, postemergence, 0 = no effect, 100 = complete control; for Blackgrass plant response rating (0 to 100 scale): Postemergence, 125 g ai/ha, 0 is no effect, 100 is complete control
Excerpt: as §1, §2

corn (Zea mays) [14] = test: as above; details: 10 days; for Corn plant response rating (0-100): 31 g ai/ha, postemergence, 0 = no effect, 100 = complete control; for Corn plant response rating (0 to 100 scale): Postemergence, 125 g ai/ha, 0 is no effect, 100 is complete control
Excerpt: as §1, §2

[15] = system: green foxtail (Setaria viridis); test: as above; details: 10 days; for Foxtail, Green plant response rating (0-100): 31 g ai/ha, postemergence, 0 = no effect, 100 = complete control; for Foxtail, Green plant response rating (0 to 100 scale): Postemergence, 125 g ai/ha, 0 is no effect, 100 is complete control
Excerpt: as §1, §2

[16] = system: horseweed (Erigeron canadensis); test: as above; details: 10 days; for Horseweed plant response rating (0-100): 31 g ai/ha, postemergence, 0 = no effect, 100 = complete control; for Horseweed plant response rating (0 to 100 scale): Postemergence, 125 g ai/ha, 0 is no effect, 100 is complete control
Excerpt: as §1, §2

kochia (Bassia scoparia) [17] = test: as above; details: 10 days; for Kochia plant response rating (0-100): 31 g ai/ha, postemergence, 0 = no effect, 100 = complete control; for Kochia plant response rating (0 to 100 scale): Postemergence, 125 g ai/ha, 0 is no effect, 100 is complete control
Excerpt: as §1, §2

[18] = system: oat, wild (wild oat, Avena fatua); test: as above; details: 10 days; for Oat, Wild plant response rating (0-100): 31 g ai/ha, postemergence, 0 = no effect, 100 = complete control; for Oat, Wild plant response rating (0 to 100 scale): Postemergence, 125 g ai/ha, 0 is no effect, 100 is complete control
Excerpt: as §1, §2

[19] = system: palmer (palmer amaranth, palmer pigweed, Amaranthus palmeri); test: as above; details: 10 days; for Amaranth, Palmer plant response rating (0-100): 31 g ai/ha, postemergence, 0 = no effect, 100 = complete control; for Amaranth, Palmer / Pigweed, Palmer plant response rating (0 to 100 scale): Postemergence, 125 g ai/ha, 0 is no effect, 100 is complete control
Excerpt: as §1, §2

[20] = system: ragweed (common ragweed, Ambrosia artemisiifolia); test: as above; details: 10 days; for Ragweed plant response rating (0-100): 31 g ai/ha, postemergence, 0 = no effect, 100 = complete control; for Ragweed plant response rating (0 to 100 scale): Postemergence, 125 g ai/ha, 0 is no effect, 100 is complete control
Excerpt: as §1, §2

[21] = system: ryegrass, Italian (italian ryegrass, Lolium multiflorum); test: as above; details: 10 days; for Ryegrass, Italian plant response rating (0-100): 31 g ai/ha, postemergence, 0 = no effect, 100 = complete control; for Ryegrass, Italian plant response rating (0 to 100 scale): Postemergence, 125 g ai/ha, 0 is no effect, 100 is complete control
Excerpt: as §1, §2

soybean (Glycine max) [22] = test: as above; details: 10 days; for Soybean plant response rating (0-100): 31 g ai/ha, postemergence, 0 = no effect, 100 = complete control; for Soybean plant response rating (0 to 100 scale): Postemergence, 125 g ai/ha, 0 is no effect, 100 is complete control
Excerpt: as §1, §2

[23] = system: wheat (Triticum aestivum); test: as above; details: 10 days; for Wheat plant response rating (0-100): 31 g ai/ha, postemergence, 0 = no effect, 100 = complete control; for Wheat plant response rating (0 to 100 scale): Postemergence, 125 g ai/ha, 0 is no effect, 100 is complete control
Excerpt: as §1, §2

## CONC(=O)C1CC(NC(=O)C2(C)CN(c3cc(F)cc(F)c3)C(=O)O2)CO1 (centres unmarked) [Compound 40]
[1]
  Barnyardgrass plant response rating (0-100): 0
  Barnyardgrass plant response rating (0 to 100 scale): 30
[2]
  Blackgrass plant response rating (0-100): 50
  Blackgrass plant response rating (0 to 100 scale): 80
Corn (Zea mays) [3]
  Corn plant response rating (0-100): 0
  Corn plant response rating (0 to 100 scale): 0
[4]
  Foxtail, Green plant response rating (0-100): 0
  Foxtail, Green plant response rating (0 to 100 scale): 20
Kochia (Bassia scoparia) [5]
  Kochia plant response rating (0-100): 0
  Kochia plant response rating (0 to 100 scale): 0
[6]
  Oat, Wild plant response rating (0-100): 50
  Oat, Wild plant response rating (0 to 100 scale): 90
[7]
  Amaranth, Palmer plant response rating (0-100): 0
  Amaranth, Palmer plant response rating (0 to 100 scale): 0
[8]
  Ragweed plant response rating (0-100): 0
  Ragweed plant response rating (0 to 100 scale): 0
[9]
  Ryegrass, Italian plant response rating (0-100): 20
  Ryegrass, Italian plant response rating (0 to 100 scale): 90
Soybean (Glycine max) [10]
  Soybean plant response rating (0-100): 0
  Soybean plant response rating (0 to 100 scale): 10
[11]
  Wheat plant response rating (0-100): 50
  Wheat plant response rating (0 to 100 scale): 90
[12]
  Barnyardgrass plant response rating (0-100): 10
  Barnyardgrass plant response rating (0 to 100 scale): 100
[13]
  Blackgrass plant response rating (0-100): 100
  Blackgrass plant response rating (0 to 100 scale): 100
Corn (Zea mays) [14]
  Corn plant response rating (0-100): 20
  Corn plant response rating (0 to 100 scale): 100
[15]
  Foxtail, Green plant response rating (0-100): 0
  Foxtail, Green plant response rating (0 to 100 scale): 90
[16]
  Horseweed plant response rating (0-100): 30
  Horseweed plant response rating (0 to 100 scale): 0
Kochia (Bassia scoparia) [17]
  Kochia plant response rating (0-100): 0
  Kochia plant response rating (0 to 100 scale): 70
[18]
  Oat, Wild plant response rating (0-100): 90
  Oat, Wild plant response rating (0 to 100 scale): 90
[19]
  Amaranth, Palmer plant response rating (0-100): 0
  Amaranth, Palmer / Pigweed, Palmer plant response rating (0 to 100 scale): 30
[20]
  Ragweed plant response rating (0-100): 0
  Ragweed plant response rating (0 to 100 scale): 20
[21]
  Ryegrass, Italian plant response rating (0-100): 20
  Ryegrass, Italian plant response rating (0 to 100 scale): 60
Soybean (Glycine max) [22]
  Soybean plant response rating (0-100): 0
  Soybean plant response rating (0 to 100 scale): 60
[23]
  Wheat plant response rating (0-100): 70
  Wheat plant response rating (0 to 100 scale): 80

## CONC(=O)C1CC(NC(=O)C2(C)CN(c3cc(F)cc(F)c3)C(=O)O2)CO1 (centres unmarked) [Compound 41]
[1]
  Barnyardgrass plant response rating (0-100): 0
  Barnyardgrass plant response rating (0 to 100 scale): 0
[2]
  Blackgrass plant response rating (0-100): 0
  Blackgrass plant response rating (0 to 100 scale): 0
Corn (Zea mays) [3]
  Corn plant response rating (0-100): 0
  Corn plant response rating (0 to 100 scale): 0
[4]
  Foxtail, Green plant response rating (0-100): 0
  Foxtail, Green plant response rating (0 to 100 scale): 0
Kochia (Bassia scoparia) [5]
  Kochia plant response rating (0-100): 0
  Kochia plant response rating (0 to 100 scale): 0
[6]
  Oat, Wild plant response rating (0-100): 0
  Oat, Wild plant response rating (0 to 100 scale): 0
[7]
  Amaranth, Palmer plant response rating (0-100): 0
  Amaranth, Palmer plant response rating (0 to 100 scale): 0
[8]
  Ragweed plant response rating (0-100): 0
  Ragweed plant response rating (0 to 100 scale): 0
[9]
  Ryegrass, Italian plant response rating (0-100): 0
  Ryegrass, Italian plant response rating (0 to 100 scale): 0
Soybean (Glycine max) [10]
  Soybean plant response rating (0-100): 0
  Soybean plant response rating (0 to 100 scale): 0
[11]
  Wheat plant response rating (0-100): 0
  Wheat plant response rating (0 to 100 scale): 0
[12]
  Barnyardgrass plant response rating (0-100): 0
  Barnyardgrass plant response rating (0 to 100 scale): 30
[13]
  Blackgrass plant response rating (0-100): 0
  Blackgrass plant response rating (0 to 100 scale): 90
Corn (Zea mays) [14]
  Corn plant response rating (0-100): 0
  Corn plant response rating (0 to 100 scale): 0
[15]
  Foxtail, Green plant response rating (0-100): 20
  Foxtail, Green plant response rating (0 to 100 scale): 30
[16]
  Horseweed plant response rating (0-100): 0
  Horseweed plant response rating (0 to 100 scale): 0
Kochia (Bassia scoparia) [17]
  Kochia plant response rating (0-100): 0
  Kochia plant response rating (0 to 100 scale): 0
[18]
  Oat, Wild plant response rating (0-100): 10
  Oat, Wild plant response rating (0 to 100 scale): 40
[19]
  Amaranth, Palmer plant response rating (0-100): 0
  Amaranth, Palmer / Pigweed, Palmer plant response rating (0 to 100 scale): 0
[20]
  Ragweed plant response rating (0-100): 0
  Ragweed plant response rating (0 to 100 scale): 0
[21]
  Ryegrass, Italian plant response rating (0-100): 0
  Ryegrass, Italian plant response rating (0 to 100 scale): 50
Soybean (Glycine max) [22]
  Soybean plant response rating (0-100): 0
  Soybean plant response rating (0 to 100 scale): 0
[23]
  Wheat plant response rating (0-100): 20
  Wheat plant response rating (0 to 100 scale): 80
